Data reported in patent US9353094B2, “Substituted quinoxalines as kinase inhibitors” (BOARD OF REGENTS OF THE UNIVERSITY OF NEBRASKA, priority 2010, dated 2016).

How the values were obtained:
[1] = tested on: panel of cancer cell lines; experiment: Growth inhibition assay, whole panel; type: cell-based, human; conditions: 20 μM, 72 h
Procedure: (§1) The compounds were screened in a growth inhibition assay at 20 μM over a 72 h period in a panel of cancer cell lines (lung-A549; pancreatic-Aspc1; colon-HT29; breast-MDAMB231; prostate-PC3; ovarian-SKOV3 and bone-U2OS) and the results are summarized in Table 2. […] This size effect was also observed with the urea compounds from the secondary amine (6j vs. 6l and 6k vs. 6m).
(§2) Cell Growth Inhibition Assay. Human lung A549, human pancreatic AsPC1, human colorectal HT-29, human breast MDA-MB-231, human prostate PC3, human ovarian SKOV3, and human osteosarcoma U2OS tumor cell lines were cultured in basal media containing 10% FBS and maintained in a 37° C. incubator with 5% CO2. All compounds were screened in 96 well microtiter plate format. In general, each cell line was plated at optimal assay density in 95 μl of propagation media in 96 well plates and incubated overnight. The next day, a standard alamar blue assay was performed (see below) on representative wells of each cell line for a Tz calculation. Subsequently, cells were treated in duplicate with a 5 μl volume of either vehicle only, positive controls etoposide and taxol, or test compounds at 20 μM (highest soluble compound concentration). The treated cells were incubated for 72 h and then assayed for growth by alamar blue assay. Briefly, 10 μl of reagent was added to each well and the plates returned to 37° C. After 3 h, fluorescence at 544ex/590em was measured using a SpectraMax M5 (Molecular Devices) plate reader. Growth is represented as a percentage of the control cells that were treated with vehicle only and % growth inhibition was determined using the NCI algorithm: Tz=number of untreated cells at zero time, C=Number of control cells at 72 h time, and T=number of compound treated cells at 72 h time; 100*([T−Tz]/[C−Tz]).

[2] = tested on: human osteosarcoma U2OS tumor cell line; experiment: Cell growth inhibition assay (alamar blue); type: cell-based; conditions: 72 h
Procedure: as §1, §2

[3] = tested on: human colorectal HT-29 tumor cell line; experiment: Cell growth inhibition assay (alamar blue); type: cell-based; conditions: HT29, 20 μM, 72 h
Procedure: as §1, §2

[4] = tested on: human ovarian SKOV3 tumor cell line; experiment: Cell growth inhibition assay (alamar blue); type: cell-based; conditions: SKOV3, 20 μM, 72 h
Procedure: as §1, §2

[5] = tested on: human breast MDA-MB-231 tumor cell line; experiment: Cell growth inhibition assay (alamar blue); type: cell-based; conditions: MDA-MB-231, 20 μM, 72 h
Procedure: as §1, §2

[6] = tested on: human lung A549 tumor cell line; experiment: Cell growth inhibition assay (alamar blue); type: cell-based; conditions: A549, 20 μM, 72 h
Procedure: as §1, §2

[7] = tested on: human pancreatic AsPC1 tumor cell line; experiment: Cell growth inhibition assay (alamar blue); type: cell-based; conditions: AsPC1, 20 μM, 72 h
Procedure: as §1, §2

[8] = tested on: human prostate PC3 tumor cell line; experiment: Cell growth inhibition assay (alamar blue); type: cell-based; conditions: PC3, 20 μM, 72 h
Procedure: as §1, §2

Row | SMILES | growth inhibition of the various cancer cell lines (in words) [1] | % Growth inhibition at 20 μM [2] | % Growth inhibition at 20 μM [3] [%] | % Growth inhibition at 20 μM [4] | % Growth inhibition at 20 μM [5] [%] | % Growth inhibition at 20 μM [6] [%] | % Growth inhibition at 20 μM [7] | % Growth inhibition at 20 μM [8] [%]
1 | CC(=O)Nc1ccc2nc(C)c(C)nc2c1 [5a] | inhibited growth | 31.4 ± 3.6% | 31.7 ± 2.8 | 4.0 ± 3.6% | 25.7 ± 5.1 | 23.4 ± 3.3 | 26.2 ± 2.8% | 21.8 ± 15.1
2 | CC(=O)Nc1ccc2nc(-c3ccco3)c(-c3ccco3)nc2c1 [5b] | inhibited growth | Inactive | 7.6 ± 5.1 | 9.0 ± 3.4% | 20.3 ± 5.9 | 57.8 ± 7.0 | Inactive | 57.7 ± 9.4
3 | O=C(Nc1ccccc1)Nc1ccc2nc(-c3ccco3)c(-c3ccco3)nc2c1 [5f] | inhibited growth | 59.6 ± 1.6% | 52.1 ± 11.6 | 24.7 ± 1.1% | 31.3 ± 10.7 | 54.6 ± 2.6 | 9.6 ± 6.6% | 70.6 ± 1.3
4 | S=C(Nc1ccccc1)Nc1ccc2nc(-c3ccco3)c(-c3ccco3)nc2c1 [6a] | active | 21.4 ± 8.4% | 26.1 ± 15.0 | Inactive | 19.1 ± 12.5 | 18.0 ± 0.1 | Inactive | 56.8 ± 1.4
5 | O=[N+]([O-])c1ccc(NC(=S)Nc2ccc3nc(-c4ccco4)c(-c4ccco4)nc3c2)cc1 [6d] | active | 32.2 ± 0.1% | 42.0 ± 1.9 | Inactive | 9.0 ± 4.7 | 19.2 ± 8.9 | Inactive | 43.4 ± 9.3
6 | O=C(Nc1ccc2nc(-c3ccco3)c(-c3ccco3)nc2c1)N1CCCC1 [6h] | active | 46.5 ± 4.4% | 16.7 ± 3.7 | 16.9 ± 4.9% | 18.2 ± 7.0 | 23.3 ± 2.9 | 11.6 ± 4.2% | 53.1 ± 9.9
7 | O=C(Nc1ccc(-c2ccccc2)cc1)Nc1ccc2nc(-c3ccco3)c(-c3ccco3)nc2c1 [7d] |  | 46.9 ± 7.4% | 72.4 ± 7.6 | Inactive | 50.2 ± 8.9 | 13.8 ± 9.8 | Inactive | 88.5 ± 1.9
